Test results: patent US8183263B2 (priority 2007, dated 2012)

Each compound was assayed on HCV replicon (assay: HCV replicon replication assay (NPT level by captured ELISA)). Details: Hepatitis C virus, 72 h; Huh-7 HCV replicon-containing cells, three days incubation; read-out: Activity (inhibition of HCV replicon replication).
Assay type: cell-based
Protocol: Compounds claimed herein are tested for the ability to inhibit viral replication of the Hepatitis C replicon in cultured cells in which the HCV replicon construct has been incorporated. The HCV replicon system was described by Bartenschlager, et. al (Science, 285, pp. 110-113 (1999)). The replicon system is predictive of in vivo anti-HCV activity; compounds that are active in humans uniformly evidence activity in the replicon assay.
In this assay HCV replicon containing cells are treated with different concentrations of the test compound to ascertain the ability of the test compound to suppress replication of the HCV replicon. As a positive control, HCV replicon-containing cells are treated with different concentrations of interferon alpha, a known inhibitor of HCV replication. The replicon assay system includes Neomycin Phosphotransferase (NPT) as a component of the replicon itself in order to detect the transcription of replicon gene products in the host cell. Cells in which the HCV replicon is actively replicating have high levels of NPT; the level of NPT is proportional to HCV replication. […] The NPT level of each sample is measured using a captured ELISA.
A protocol for testing compounds for the ability to inhibit viral replication of the Hepatitis C replicon cultured cells in which the replicon construct has been incorporated, follows.
The HCV replicon contains, 5′-3′, the HCV-IRES, the neomycin phosphotransferase (neo) gene, the IRES of encephalomyocarditis virus, which directs translation of HCV sequences NS3 to NS5B, and the 3′-NTR. The sequence of the HCV replicon has been deposited in GenBank (Accession no. AJ242652).
The replicon is transfected into Huh-7 cells using standard methods such as electroporation.
The equipment and materials include, but are not limited to, Huh-7 HCV replicon-containing cells, maintenance media (DMEM (Dulbecco's modified Eagle media) supplemented with 10% FBS, L-glutamine, non-essential amino acids, penicillin (100 units/ml), streptomycin (100 micrograms/ml), and 500 micrograms/ml of Geneticin (G418), screening media (DMEM supplemented with 10% FBS, L-glutamine, non-essential amino acids, penicillin (100 units/ml) and streptomycin (100 micrograms/ml)), 96 well tissue culture plates (flat bottom), 96 well plates (U bottom for drug dilution), Interferon alpha for positive control, fixation reagent (such as methanol: acetone), primary antibody (rabbit anti-NPTII), secondary antibody: Eu—N1 1, and enhancement solution.
HCV replicon-containing cells are rinsed with once PBS once; 2 mls of trypsin are then added. Cells are incubated at 37° C. in a 5% CO2 incubator for 3-5 minutes. 10 mls of complete medium is added to stop the reaction. Cells are blown gently, put into a 15 ml tube, and spun at 1200 rpm for four minutes. The trypsin/medium solution is removed and 5 mls of medium (500 ml DMEM (high glucose)) from BRL catalog #12430-054; 50 mls 10% FBS, 5% Geneticin G418 (50 mg/ml, BRL catalog #10131-035), 5 ml MEM non-essential amino acids (100×BRL #11140-050) and 5 ml pen-strep (BRL #15140-148) is added. The cells and media are mixed carefully
Cells are plated with screening medium (500 ml DMEM (BRL #21063-029), 50 ml FBS (BRL #10082-147) and 5 ml MEM non-essential amino acid (BRL #11140-050) at 6000-7500 cells/100 μl/well of 96 well plate (6-7.5×10^5 cells/10 ml/plate). Plates are placed into 37° C. 5% CO2 incubator overnight.
The following morning, drugs (test compounds or interferon alpha) are diluted in 96 well U bottom plates with media or DMSO/media, depending on the final concentration chosen for screening. Generally for 6 concentrations of each test compounds ranging from 10 micromolar to 0.03 micromolar are applied. 100 μl of the test compound dilution is placed in wells of the 96 well plate containing the HCV replicon cells. Media without drug is added to some wells as a negative controls. DMSO is known to affect cell growth. […]

CCc1ccc(Oc2ccc(Nc3nc(-c4cccnc4)cs3)cc2C(C)=O)cc1 and CCc1ccc(Oc2ccc(Nc3nc(-c4cccnc4)cs3)cc2C(F)(F)F)cc1 [Cmp 49, N-(4-(4-ethylphenoxy)-3-(trifluoromethyl)phenyl)-4-(pyridin-3-yl)thiazol-2-amine] cannot be ordered by EC50: under 1000 nM for the first, under 1000 nM for the second.

First: CCCCCCCS(=O)(=O)CCc1ccc(Nc2nc(-c3cccnc3)cs2)cc1 [Cmp 20, N-(4-(2-(heptylsulfonyl)ethyl)phenyl)-4-(pyridin-3-yl)thiazol-2-amine]
Second: CCCCCCCCc1ccc(Nc2nc(-c3cccnc3)c(F)s2)cc1 [Cmp 31, 5-fluoro-N-(4-octylphenyl)-4-(pyridin-3-yl)thiazol-2-amine]
The EC50 of the first is higher: 1000 to 10000 nM for the first, under 1000 nM for the second.

FC(F)(F)c1cc(Nc2nc(-c3cccnc3)cs2)ccc1OCCCCCc1ccccc1 [Cmp 21] and Cc1ccccc1CCCCOc1ccc(Nc2nc(-c3cccnc3)cs2)cc1C(F)(F)F [Cmp 22, 4-(pyridin-3-yl)-N-(4-(4-o-tolylbutoxy)-3-(trifluoromethyl)phenyl)thiazol-2-amine] cannot be ordered by EC50: under 1000 nM for the first, under 1000 nM for the second.

FC(F)(F)c1cc(Nc2nc(-c3cccnc3)cs2)ccc1OCCCCc1ccc(Cl)cc1 [Cmp 23, N-(4-(4-(4-chlorophenyl)butoxy)-3-(trifluoromethyl)phenyl)-4-(pyridin-3-yl)thiazol-2-amine] and FC(F)(F)c1cc(Nc2nc(-c3cccnc3)cs2)ccc1Oc1ccc(Cl)cc1 [Cmp 50, N-(4-(4-chlorophenoxy)-3-(trifluoromethyl)phenyl)-4-(pyridin-3-yl)thiazol-2-amine] cannot be ordered by EC50: under 1000 nM for the first, under 1000 nM for the second.

Fc1ccc(C#CCCOc2ccc(Nc3nc(-c4cccnc4)cs3)cc2C(F)(F)F)cc1 [Cmp 24, N-(4-(4-(4-fluorophenyl)but-3-ynyloxy)-3-(trifluoromethyl)phenyl)-4-(pyridin-3-yl)thiazol-2-amine] and N#Cc1ccc(Oc2ccc(Nc3nc(-c4cccnc4)cs3)cc2C(F)(F)F)cc1 [Cmp 48, 4-(4-(4-(pyridin-3-yl)thiazol-2-ylamino)-2-(trifluoromethyl)phenoxy)benzonitrile] cannot be ordered by EC50: under 1000 nM for the first, under 1000 nM for the second.

CCCCCCCCOc1cc(Nc2nc(-c3cccnc3)cs2)ccc1C [Cmp 25, N-(4-methyl-3-(octyloxy)phenyl)-4-(pyridin-3-yl)thiazol-2-amine] and CCCCCOc1cc(Nc2nc(-c3cccnc3)cs2)ccc1C [Cmp 26, N-(4-methyl-3-(pentyloxy)phenyl)-4-(pyridin-3-yl)thiazol-2-amine] cannot be ordered by EC50: under 1000 nM for the first, under 1000 nM for the second.

CCCCCOc1cc(Nc2nc(-c3cccnc3)cs2)ccc1C#N [Cmp 27, 2-(pentyloxy)-4-(4-(pyridin-3-yl)thiazol-2-ylamino)benzonitrile] and CCCCCOc1cc(Nc2nc(-c3cccnc3)c(F)s2)ccc1C#N [Cmp 30, -(5-fluoro-4-(pyridin-3-yl)thiazol-2-ylamino)-2-(pentyloxy)benzonitrile] cannot be ordered by EC50: under 1000 nM for the first, under 1000 nM for the second.

CCCCCCCCOc1cc(Nc2nc(-c3cccnc3)c(F)s2)ccc1C [Cmp 28, 5-fluoro-N-(4-methyl-3-(octyloxy)phenyl)-4-(pyridin-3-yl)thiazol-2-amine] and CCCCCOc1cc(Nc2nc(-c3cccnc3)c(F)s2)ccc1C [Cmp 29] cannot be ordered by EC50: under 1000 nM for the first, under 1000 nM for the second.

CC/C=N/N(c1ccc(OCCCCCCCC)cc1)c1nc(-c2cccnc2)cs1 [Cmp 32, (E)-2-(1-(4-(octyloxy)phenyl)-2-propylidenehydrazinyl)-4-(pyridin-3-yl)thiazole] and C/C=N/N(c1ccc(OCCCCCCCC)cc1)c1nc(-c2cccnc2)cs1 [Cmp 34, (E)-2-(2-ethylidene-1-(4-(octyloxy)phenyl)hydrazinyl)-4-(pyridin-3-yl)thiazole] cannot be ordered by EC50: under 1000 nM for the first, under 1000 nM for the second.

C/C=N/N(c1ccc(OCCCCCCCC)c(C(F)(F)F)c1)c1nc(-c2cccnc2)cs1 [Cmp 33, (E)-2-(2-ethylidene-1-(4-(octyloxy)-3-(trifluoromethyl)phenyl)hydrazinyl)-4-(pyridin-3-yl)thiazole] and CCCCCCCCOc1ccc(N(N)c2nc(-c3cccnc3)cs2)cc1C(F)(F)F [Cmp 44, 2-(1-(4-(octyloxy)-3-(trifluoromethyl)phenyl)hydrazinyl)-4-(pyridin-3-yl)thiazolo] cannot be ordered by EC50: under 1000 nM for the first, under 1000 nM for the second.

CCCCCCCCc1ccc(Nc2nc(-c3cccnc3)c(F)s2)cc1C(F)(F)F [Cmp 35, 5-fluoro-N-(4-octyl-3-(trifluoromethyl)phenyl)-4-(pyridin-3-yl)thiazol-2-amine] and CCCCCCCCc1ccc(Nc2nc(-c3cnc(OC)nc3)c(F)s2)cc1C(F)(F)F [Cmp 36, 5-fluoro-4-(2-methoxypyrimidin-5-yl)-N-(4-octyl-3-(trifluoromethyl)phenyl)thiazol-2-amine] cannot be ordered by EC50: under 1000 nM for the first, under 1000 nM for the second.

Cc1ccc(Nc2nc(-c3cccnc3)cs2)cc1OCCOc1ccccc1 [Cmp 37, N-(4-methyl-3-(2-phenoxyethoxy)phenyl)-4-(pyridin-3-yl)thiazol-2-amine] and Cc1ccc(Nc2nc(-c3ccc(F)cc3)cs2)cc1OCCOc1ccccc1 [Cmp 41] cannot be ordered by EC50: under 1000 nM for the first, under 1000 nM for the second.

Cc1ccc(Nc2nc(-c3cccnc3)cs2)cc1OCC1CCCCC1 [Cmp 38, N-(3-(cyclohexylmethoxy)-4-methylphenyl)-4-(pyridin-3-yl)thiazol-2-amine] and Cc1ccc(Nc2nc(-c3ccc(F)cc3)cs2)cc1OCC1CCCCC1 [Cmp 42, N-(3-(cyclohexylmethoxy)-4-methylphenyl)-4-(4-fluorophenyl)thiazol-2-amine] cannot be ordered by EC50: under 1000 nM for the first, under 1000 nM for the second.

CCCCCCCCc1ccc(Nc2nc(-c3ccc[n+](O)c3)c(F)s2)cc1 [Cmp 39, 5-fluoro-N-(4-octylphenyl)-4-(pyridine-1-oxide-3-yl)thiazol-2-amine] and CCCCCCCCOc1cc(Nc2nc(-c3ccc(F)cc3)cs2)ccc1C [Cmp 45, 4-(4-fluorophenyl)-N-(4-methyl-3-(octyloxy)phenyl)thiazol-2-amine] cannot be ordered by EC50: under 1000 nM for the first, under 1000 nM for the second.

COc1ncc(-c2csc(Nc3ccc(C)c(OCCOc4ccccc4)c3)n2)cn1 [Cmp 40, 4-(2-methoxypyrimidin-5-yl)-N-(4-methyl-3-(2-phenoxyethoxy)phenyl)thiazol-2-amine] and COc1ncc(-c2csc(Nc3ccc(Oc4ccccc4)c(C(F)(F)F)c3)n2)cn1 [Cmp 51, 4-(2-methoxypyrimidin-5-yl)-N-(4-phenoxy-3-(trifluoromethyl)phenyl)thiazol-2-amine] cannot be ordered by EC50: under 1000 nM for the first, under 1000 nM for the second.

COc1ncc(-c2csc(Nc3ccc(C)c(OCC4CCCCC4)c3)n2)cn1 [Cmp 43, N-(3-(cyclohexylmethoxy)-4-methylphenyl)-4-(2-methoxypyrimidin-5-yl)thiazol-2-amine] and CCCCCCCCOc1cc(Nc2nc(-c3cnc(OC)nc3)cs2)ccc1C [Cmp 46, 4-(2-methoxypyrimidin-5-yl)-N-(4-methyl-3-(octyloxy)phenyl)thiazol-2-amine] cannot be ordered by EC50: under 1000 nM for the first, under 1000 nM for the second.

FC(F)(F)c1cc(Nc2nc(-c3cccnc3)cs2)ccc1Oc1ccccc1 [Cmp 47, N-(4-phenoxy-3-(trifluoromethyl)phenyl)-4-(pyridin-3-yl)thiazol-2-amine] and COc1ncc(-c2csc(Nc3ccc(Oc4ccc(C#N)cc4)c(C(F)(F)F)c3)n2)cn1 [Cmp 52, 4-(4-(4-(2-methoxypyrimidin-5-yl)thiazol-2-ylamino)-2-(trifluoromethyl)phenoxy)benzonitrile] cannot be ordered by EC50: under 1000 nM for the first, under 1000 nM for the second.

In the case of CCc1ccc(Oc2ccc(Nc3nc(-c4cnc(OC)nc4)cs3)cc2C(F)(F)F)cc1 [Cmp 53, N-(4-(4-ethylphenoxy)-3-(trifluoromethyl)phenyl)-4-(2-methoxypyrimidin-5-yl)thiazol-2-amine], the EC50 is reported as under 1000 nM.
